What was measured:
[1] = tested on: P. aeruginosa ATCC 27853; assay: Silver (III) periodate efficacy testing in the presence of Cl-, SO4 2-, and PO4 3-; assay type: cell-based; settings: water, 1% NaCl, 1% K2SO4 and 1% K2HPO4 solutions; challenge time 30 minutes; tested 1.5-200 ppm
Procedure: Silver (III) periodate was tested for efficacy in water, 1% NaCl, 1% K2SO4, and 1% K2HPO4 solutions, and compared with silver nitrate. The test solutions were tested against P. aeruginosa ATCC 27853. The challenge time was 30 minutes. Silver (III) periodate and silver nitrate were tested at range of 1.5-200 ppm.

[2] = tested on: relevant clinical pathogens in biofilm form (Pseudomonas aeruginosa, MRSA, MRSE, Acinetobacter baumanii, Listeria monocytogenes, VRE, Escherichia coli, Candida …); assay: MBEC efficacy testing against relevant clinical pathogens in saline; assay type: cell-based; settings: challenge time 4 hours, 2000 ppm to 15.62 ppm
Procedure: The antimicrobial effect of silver (III) periodate and silver nitrate (2000 ppm to 15.62 ppm) in saline was tested against Pseudomonas aeruginosa, Staphylococcus aureus (MRSA), Staphylococcus epidermidis (MRSE), Acinetobacter baumanii, Listeria monocytogenes, Enterococcus faecalis (VRE), Escherichia coli, Candida albicans, Klebsiella pneumonia, Enterobacter aerongenes. The challenge time was 4 hours.

[3] = tested on: Candida albicans ATCC 28367; assay: MBEC P&G assay in dilutions of human serum; assay type: cell-based
Procedure: (§1) The effects of silver (III) periodate and silver nitrate were tested in different dilutions of human serum (0.001%, 0.01%, 0.1%, 1%, 10%, 50%) using the MBECTM P&G assay against relevant clinical human pathogens Escherichia coli, Staphylococcus aureus (MRSA), and Candida albicans. The challenge time was 4 hours. The tested concentration range for the silver compounds was 500 to 7.8 ppm.

[4] = tested on: Escherichia coli ATCC 25922; assay: MBEC P&G assay in dilutions of human serum; assay type: cell-based
Procedure: as §1

[5] = tested on: Staphylococcus aureus (MRSA) 456; assay: MBEC P&G assay in dilutions of human serum; assay type: cell-based
Procedure: as §1

[6] = tested on: Escherichia coli (ATCC 25922); assay: MBEC P&G assay in dilutions of urine; assay type: cell-based
Procedure: (§2) The effects of silver (III) periodate and silver nitrate in different dilutions of urine (0.001%, 0.01%, 0.1%, 1%, 10%, 50%) using the MBEC™ P&G assay were tested against Escherichia coli (ATCC 25922)The challenge time was 4 hours. The tested concentration range for both silver compounds was 500 to 7.8 ppm.

[7] = tested on: Escherichia coli (ATCC 25922); assay: MBEC P&G assay in dilutions of feces; assay type: cell-based
Procedure: The challenge time was 4 hours. The tested concentration range for both silver compounds was 500 to 7.8 ppm.

[8] = tested on: Escherichia coli (ATCC 25922); assay: MBEC P&G assay in dilutions of mucin; assay type: cell-based
Procedure: as §2, with “mucin (2.0%, 1.0%, 0.5%, 0.25%, 0.12%, 0.06%) were tested” for “urine (0.001%, 0.01%, 0.1%, 1%, 10%, 50%)”, “assay” for “assay were tested”

[9] = tested on: bacterial speck (Pseudomonas syringae pv. tomato); assay: Field trial, foliar spray against bacterial speck in tomatoes (Example 18); assay type: in vivo, tomatoes (Lycopersicon esculentum); settings: after three treatment sprays
[10] = tested on: bacterial canker (Clavibacter michiganensis pv. michiganensis); assay: Field trial, foliar spray against bacterial canker in tomatoes (Example 19); assay type: in vivo, tomatoes (Lycopersicon esculentum)
Procedure: Silver (III) periodate was tested as a bactericidal foliar spray treatment against bacterial canker (Clavibacter michiganensis pv. michiganensis) in tomatoes (Lycopersicon esculentum).
See Example 18 for Preparation of Tomato Seed; Preparation of Field; Seeding; Plot Maintenance; Preparation of Spray Treatment Solutions and Inoculum; Spray Treatment Procedure; and Data Collection.

[11] = tested on: bacterial speck; assay: Field trial, foliar spray against bacterial speck in tomato (Example 22); assay type: in vivo; settings: compared with the standard Kocide and Kocide+Dithane
Procedure: Silver (III) periodate was tested as a foliar spray treatment fungicide against bacterial speck in tomato.
See Example 22 for Preparation of Tomato Seed; Preparation of Field; Seeding; Plot Maintenance; Preparation of Spray Treatment Solutions and Inoculum; Spray Treatment Procedure; and Data Collection.
The treatments compared were water (control), oxysilver nitrate, silver (III) periodate, Dithane, Kocide 2000, Dithane DG 75+Kocide 2000, oxysilver nitrate+Dithane, and silver (III) periodate+Dithane, Serenade Max, and Serenade Max+oxysilver nitrate.

[12] = tested on: alternaria leaf blight (Alternaria brassicicola); assay: Field trial, foliar spray against alternaria leaf blight in cauliflower and broccoli (Example 23); assay type: in vivo
Procedure: (§3) Silver (III) periodate was tested as a fungicidal foliar spray treatment against alternaria leaf blight (Alternaria brassicicola) and downy mildew (Peronospora paratsitica Lui) in cauliflower (Brassica oleracea var. botrytis) and broccoli (Brassica oleracea […]), respectively.
Preparation of Seed, Preparation of Field, Seeding, Plot Maintenance: Two trials were conducted in organic soil (pH ≈7.2, organic matter ≈47.2%). Cauliflower and broccoli were seeded into 128-cell Plastomer plug trays in early June and hand transplanted in early July in two rows, 86 cm apart and 9 meter in length, with an in-row spacing of 40 cm. A randomized complete block arrangement with four replicates per treatment was used. Treatments were applied in July and August using a CO2 backpack sprayer equipped with 4 TeeJet D-2 hollow cone nozzles spaced 40 cm apart and calibrated to deliver 250 L/ha at 240 kPa.
This was immediately followed by irrigation to achieve leaf wetness. The plots were treated prior to inoculation.
Preparation of Spray Treatment Solutions and Inoculum: The treatment rate for silver (III) periodate was 0.16 kg/ha. It was also combined (at this rate) with Bravo, which was delivered at 2.5L/ha.
Data Collection: Plants were monitored weekly to determine when lesions were first observed. Plants (15 per rep, randomly selected and marked for continued assessment) were assessed twice during the growing season for number of lesions per leaf. As heads mature, 15 heads per rep in total were harvested and assessed from each experimental unit. The number of Alternaria le sions per leaf were counted. Healthy leaves were counted and trimmed head weights were recorded to indicate marketable yield.
Treatments compared were oxysilver nitrate, silver (III) periodate, Bravo, Bravo+oxysilver nitrate, Bravo+silver (III) periodate, and water (control).

[13] = tested on: downy mildew (Peronospora paratsitica Lui); assay: Field trial, foliar spray against downy mildew (Example 24); assay type: in vivo; settings: compared with the check
Procedure: as §3
See Example 23 for Preparation of Tomato Seed; Preparation of Field; Seeding; Plot Maintenance; Preparation of Spray Treatment Solutions and Inoculum; Spray Treatment Procedure; and Data Collection.

[Ag+3].[Na+].[Na+].[Na+].[Na+].[Na+].[O-][I+]([O-])([O-])([O-])([O-])O.[O-][I+]([O-])([O-])([O-])([O-])O [silver (III) periodate, sodium diperiodatoargentate]
effective concentration [1]: 1.73 ppm
MBEC (minimum biofilm eradication concentration) killing activity [2]: higher killing activity than silver nitrate against most of the tested strains
log reduction ([3]; 0.1%, 0.01%, 0.001% human serum, concentrations higher than 125 ppm): higher log reductions
log reduction ([3]; 10% and 1% human serum, 31.25-125 ppm): Log reductions were higher
log reduction compared with silver nitrate ([4]; 0.1% and 0.01% human serum, low tested concentrations): lower log reduction than silver nitrate
difference in log reduction over silver nitrate ([4]; 50% and 10% human serum, even at concentrations as low as 7.8 ppm): 1.5-2.0 log reduction
log reduction, trend with compound concentration ([4]; human serum dilutions, in general, 4 hours, 500 to 7.8 ppm): log reductions decreased with the decrease in concentrations of silver (III) periodate
log reduction compared with the other compound ([5]; 0.001% human serum, 31.25-125 ppm): higher log reductions
killing activity ([5]; 0.1% and 0.01% human serum): no significant killing activity
killing activity, silver (III) periodate vs silver nitrate ([5]; high concentrations of human serum): no significant differences
MBC cut-off point ([6]; 10% urine): 31.25 ppm
MBC cut-off point ([6]; 100% urine): 250 ppm
log reduction ([6]; 500 and 250 ppm, all tested concentrations of urine): approximately equal log reductions
log reduction compared with the other compound ([6]; compound concentrations of 125 ppm and below): larger log reduction at the lower and middle concentrations
compound concentration giving the highest log reduction ([6]; concentrations at 125 ppm and below, urine): 62.5 ppm
MBC, effective level ([7]; 1.56% feces): > 15.6 ppm
MBEC, effective level ([7]; 1.56% feces): 125 ppm
MBC, effective level ([7]; 3.13% feces): > 31.25 ppm
MBEC, effective level ([7]; 3.13% feces): 250 ppm
MBC, effective level ([7]; 6.25% feces): > 62.5 ppm
MBEC, effective level ([7]; 6.25% feces): 125 ppm
MBC, effective level ([7]; 12.5% feces): > 62.5 ppm
MBC, effective level ([7]; 25% feces): higher than 125 ppm
MBC, effective level ([7]; 50% feces): higher than 125 ppm
MBEC, effective level ([7]; concentrations of feces higher than 12.5%, ineffective at highest tested concentration): > 500 ppm
log reduction, trend with compound concentration ([8]; higher concentrations of mucin): log reduction decreased with a decrease in concentration of silver (III) periodate
effectiveness compared with the other compound ([8]; higher concentrations of mucin (2% and 1%)): more effective than silver nitrate
log reduction, trend with compound concentration ([8]; lower concentrations of mucin (0.25%, 0.12% and 0.06%)): log reduction was relatively unaffected by the changes in concentration
effectiveness compared with the other compound ([8]; mucin 0.5%, 0.25%, 0.12% and 0.06%, lower compound concentrations): more effective than the lower tested concentrations of silver nitrate
disease severity on foliage [9]: best at reducing disease severity on foliage
disease severity on foliage ([10]; after three treatment sprays): best at reducing disease severity on foliage
disease severity on foliage ([10]; after two treatment sprays): best at reducing disease severity on foliage
levels of bacterial speck (number of infected leaves) or disease severity ratings [11]: did not have statistically different levels
harvest weights ([12]; broccoli): higher harvest weights (not significant)
Alternaria lesions per leaf ([12]; compared with the check, broccoli): significantly lower Alternaria lesions per leaf than the check
Alternaria lesions per leaf ([12]; second result paragraph, crop not given): higher Alternaria lesions per leaf than the check and other treatments
downy mildew severity indexes [13]: significantly lower downy mildew severity indexes than the check
